Reference: PubChem BioAssay AID1963967 (Molecular Pharmacology Branch, DTP, NCI, 2024)

System: 855422-203-R-J1-PDC spheroids with HUVEC/MSC, viability
Assay: Anticancer human tumor 855422-203-R-J1-PDC patient-derived bladder carcinoma cell line growth inhibition [PI3K]
Conditions: for IC50: curve of first compound; for viability, T/C: stronger effect = lower value
Source text: Combinatorial screen of targeted agents with the PI3K inhibitors inavolisib, alpelisib, duvelisib, and copanlisib in multi-cell type tumor spheroids
A high-throughput screen of multi-cell type tumor spheroids was designed to identify active combinations of targeted small molecules and PI3K pathway inhibitors. Complex spheroids include a stromal component modeled by human endothelial cells (HUVEC) and fibroblasts modeled by human mesenchymal stem cells (MSCs). The concentration ranges selected for each drug and investigational agent were based upon clinically achievable concentrations if the clinical Cmax of the agent was known.
Compounds. The drugs and investigational agents: inavolisib (NSC800729), alpelisib (NSC765974), duvelisib (NSC772469), copanlisib (NSC816437), ipatasertib (NSC767898), afuresertib (NSC778305), talazoparib (NSC767125), sapanisertib (NSC764658), selumetinib (NSC741078), tovorafenib (DAY101, NSC766906), vemurafenib (NSC761431), ravoxertinib (NSC781343), sotorasib (NSC818433), MRTX1133 (NSC 836407), abemaciclib (NSC 768073), palbociclib (NSC758247), venetoclax (NSC 766270), SY5609 (NSC837396), enzalutamide (NSC755605), and darolutamide (NSC825331), were obtained from the National Cancer Institute (NCI) Developmental Therapeutics Program Chemical Repository. The FDA-approved anticancer drug set is available from the NCI Developmental Therapeutics Program. […] The stock solutions were prepared in dimethyl sulfoxide (DMSO, Sigma-Aldrich, St. Louis, MO, cat. D2650) at 800-fold the tested concentration and stored at -70 degrees C prior to their use. All drugs and investigational agents were tested over a range starting from a high concentration at or near the clinical Cmax and decreasing in half-log increments. If the clinical Cmax for an agent had not been determined, the highest concentration tested was 10 microM.
Cell Culture. All cells were maintained in an incubator at 37 degrees C and 5% CO2 with 95% humidity. The PDC lines were cultured according to standard operating procedures established by the NCI PDMR (https://pdmr.cancer.gov/sops/default.htm). All PDCs were thawed and cultured in Matrigel-coated flasks prepared with a working solution of 1X Ham's F-12 nutrient mix, without supplementation (Invitrogen, Waltham, MA, cat. 11765054), 100 U/mL penicillin-streptomycin (Invitrogen, cat. 15140122), and 2.5% Matrigel (Corning Inc., Corning, NY, cat. 354248) for the first three passages. The 354836-022-R-J1-PDC, 475296-252-R-J1-PDC, and 997726-040-R-J2-PDC lines were cultured in 6A media, which includes advanced DMEM/F-12 (Thermo Fisher Scientific, cat. 12634028), 10 mM HEPES (Thermo Fisher Scientific, cat. 15630080), 1X GlutaMAX supplement (Thermo Fisher Scientific, cat. 35050061), 0.1 mg/mL primocin (InvivoGen, San Diego, CA, cat. ant-pm-2), 10% defined fetal bovine serum, heat inactivated (HyClone Laboratories Inc., Logan, UT, cat. SH30070.03HI), 50% L-WRN conditioned media (ATCC, cat. CRL-3276), 1.25 mM N-Acetyl-L-cysteine (Sigma-Aldrich, cat. A9165), 10 mM nicotinamide (Sigma-Aldrich, cat. N0636), 1X B-27 supplement (Thermo Fisher Scientific, cat. 17504044), 1X N-2 supplement (Thermo Fisher Scientific, cat. 17502048), and 10 microM Y-27632 dihydrochloride (Tocris Bioscience, Bristol, United Kingdom, cat. 1254). The 624824-186-R-J2-PDC line was cultured in 6C/Colon 1B media, which includes all 6A media components plus 50 ng/mL human EGF recombinant protein (Thermo Fisher Scientific, cat. PHG0311). […]

[1] = second compound 0.0316 µM, first compound 0.0316 µM
[2] = second compound 0.0316 µM, first compound 0.1 µM
[3] = second compound 0.0316 µM, first compound 0.316 µM
[4] = second compound 0.0316 µM, first compound 1 µM
[5] = second compound 0.0316 µM, first compound 3.16 µM
[6] = second compound 0.0316 µM, first compound 10 µM
[7] = second compound 0.1 µM, first compound 0.0316 µM
[8] = second compound 0.1 µM, first compound 0.1 µM
[9] = second compound 0.1 µM, first compound 0.316 µM
[10] = second compound 0.1 µM, first compound 1 µM
[11] = second compound 0.1 µM, first compound 3.16 µM
[12] = second compound 0.1 µM, first compound 10 µM
[13] = second compound 0.316 µM, first compound 0.0316 µM
[14] = second compound 0.316 µM, first compound 0.1 µM
[15] = second compound 0.316 µM, first compound 0.316 µM
[16] = second compound 0.316 µM, first compound 1 µM
[17] = second compound 0.316 µM, first compound 3.16 µM
[18] = second compound 0.316 µM, first compound 10 µM
[19] = second compound 1 µM, first compound 0.0316 µM
[20] = second compound 1 µM, first compound 0.1 µM
[21] = second compound 1 µM, first compound 0.316 µM
[22] = second compound 1 µM, first compound 1 µM
[23] = second compound 1 µM, first compound 3.16 µM
[24] = second compound 1 µM, first compound 10 µM
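Note: agents incubated with spheroids for one week before read-out.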
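Throughout, for viability, T/C: 100% = DMSO vehicle-treated control wells.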

SMILES: C#Cc1c(F)ccc2cc(O)cc(-c3ncc4c(N5CC6CCC(C5)N6)nc(OCC56CCCN5CC(F)C6)nc4c3F)c12 (centres undefined) + COc1c(OCCCN2CCOCC2)ccc2c3n(c(=NC(=O)c4cnc(N)nc4)nc12)CCN3
- IC50 (second compound 0.00316 µM): > 10 µM
- IC50 (second compound 0.01 µM): > 10 µM
- IC50 (second compound 0.0316 µM): > 10 µM
- IC50 (second compound 0.1 µM): < 0.0316 µM
- IC50 (second compound 0.316 µM): < 0.0316 µM
- IC50 (second compound 1 µM): < 0.0316 µM
- viability, T/C (second compound 0.00316 µM, first compound 0.0316 µM): 103%
- viability, T/C (second compound 0.00316 µM, first compound 0.1 µM): 86.9%
- viability, T/C (second compound 0.00316 µM, first compound 0.316 µM): 105%
- viability, T/C (second compound 0.00316 µM, first compound 1 µM): 101%
- viability, T/C (second compound 0.00316 µM, first compound 3.16 µM): 103%
- viability, T/C (second compound 0.00316 µM, first compound 10 µM): 107%
- viability, T/C (second compound 0.01 µM, first compound 0.0316 µM): 97.7%
- viability, T/C (second compound 0.01 µM, first compound 0.1 µM): 90.9%
- viability, T/C (second compound 0.01 µM, first compound 0.316 µM): 83.3%
- viability, T/C (second compound 0.01 µM, first compound 1 µM): 91%
- viability, T/C (second compound 0.01 µM, first compound 3.16 µM): 92.8%
- viability, T/C (second compound 0.01 µM, first compound 10 µM): 105%
- viability, T/C [1]: 57.6%
- viability, T/C [2]: 65.4%
- viability, T/C [3]: 62.7%
- viability, T/C [4]: 60%
- viability, T/C [5]: 59.5%
- viability, T/C [6]: 50.4%
- viability, T/C [7]: 25.9%
- viability, T/C [8]: 26.7%
- viability, T/C [9]: 26.5%
- viability, T/C [10]: 24.8%
- viability, T/C [11]: 23.8%
- viability, T/C [12]: 20.4%
- viability, T/C [13]: 10.8%
- viability, T/C [14]: 8.21%
- viability, T/C [15]: 9.76%
- viability, T/C [16]: 7.21%
- viability, T/C [17]: 6.7%
- viability, T/C [18]: 3.41%
- viability, T/C [19]: 3.53%
- viability, T/C [20]: 3.24%
- viability, T/C [21]: 3.78%
- viability, T/C [22]: 2.64%
- viability, T/C [23]: 2.16%
- viability, T/C [24]: 0.32%

SMILES: CNC(=O)c1ccc(N2C(=S)N(c3ccc(C#N)c(C(F)(F)F)c3)C(=O)C2(C)C)cc1F + Cc1nc(NC(=O)N2CCCC2C(N)=O)sc1-c1ccnc(C(C)(C)C(F)(F)F)c1
- IC50 (second compound 0.0316 µM): > 10 µM
- IC50 (second compound 0.1 µM): > 10 µM
- IC50 (second compound 0.316 µM): > 10 µM
- IC50 (second compound 1 µM): > 10 µM
- IC50 (second compound 3.16 µM): 0.0316 µM
- IC50 (second compound 10 µM): < 0.0316 µM
- viability, T/C [1]: 109%
- viability, T/C [2]: 95.3%
- viability, T/C [3]: 99.1%
- viability, T/C [4]: 87.4%
- viability, T/C [5]: 80.7%
- viability, T/C [6]: 74.5%
- viability, T/C [7]: 99.7%
- viability, T/C [8]: 97.8%
- viability, T/C [9]: 96.7%
- viability, T/C [10]: 84.8%
- viability, T/C [11]: 88.1%
- viability, T/C [12]: 79%
- viability, T/C [13]: 98.1%
- viability, T/C [14]: 83.3%
- viability, T/C [15]: 96.7%
- viability, T/C [16]: 87.6%
- viability, T/C [17]: 86.8%
- viability, T/C [18]: 77.4%
- viability, T/C [19]: 72.5%
- viability, T/C [20]: 75.7%
- viability, T/C [21]: 73.7%
- viability, T/C [22]: 76.8%
- viability, T/C [23]: 82.5%
- viability, T/C [24]: 61.8%
- viability, T/C (second compound 3.16 µM, first compound 0.0316 µM): 47.4%
- viability, T/C (second compound 3.16 µM, first compound 0.1 µM): 49.6%
- viability, T/C (second compound 3.16 µM, first compound 0.316 µM): 44.6%
- viability, T/C (second compound 3.16 µM, first compound 1 µM): 51.5%
- viability, T/C (second compound 3.16 µM, first compound 3.16 µM): 54.1%
- viability, T/C (second compound 3.16 µM, first compound 10 µM): 36.7%
- viability, T/C (second compound 10 µM, first compound 0.0316 µM): 24.1%
- viability, T/C (second compound 10 µM, first compound 0.1 µM): 27.6%
- viability, T/C (second compound 10 µM, first compound 0.316 µM): 24.7%
- viability, T/C (second compound 10 µM, first compound 1 µM): 31.2%
- viability, T/C (second compound 10 µM, first compound 3.16 µM): 29.4%
- viability, T/C (second compound 10 µM, first compound 10 µM): 16.8%
